Where a name gives a salt, the structure may show the parent alone.

In one experiment the target is hBTK (full-length BTK, 6HIS-tag cleaved) (Homo sapiens (Human), UniProt Q06187). In words: BTK enzymatic activity, LANCE TR-FRET assay (Assay Method C). The format is biochemical. To be noted: LANCE TR-FRET, 50 pM hBTK, 25 μM ATP; class 100-1000 is given as ≧100 nM-<1 μM; read-out: IC50 Btk activity values - Assay Method C.
Sequence of hBTK (full-length BTK, 6HIS-tag cleaved) (Q06187 whole entry): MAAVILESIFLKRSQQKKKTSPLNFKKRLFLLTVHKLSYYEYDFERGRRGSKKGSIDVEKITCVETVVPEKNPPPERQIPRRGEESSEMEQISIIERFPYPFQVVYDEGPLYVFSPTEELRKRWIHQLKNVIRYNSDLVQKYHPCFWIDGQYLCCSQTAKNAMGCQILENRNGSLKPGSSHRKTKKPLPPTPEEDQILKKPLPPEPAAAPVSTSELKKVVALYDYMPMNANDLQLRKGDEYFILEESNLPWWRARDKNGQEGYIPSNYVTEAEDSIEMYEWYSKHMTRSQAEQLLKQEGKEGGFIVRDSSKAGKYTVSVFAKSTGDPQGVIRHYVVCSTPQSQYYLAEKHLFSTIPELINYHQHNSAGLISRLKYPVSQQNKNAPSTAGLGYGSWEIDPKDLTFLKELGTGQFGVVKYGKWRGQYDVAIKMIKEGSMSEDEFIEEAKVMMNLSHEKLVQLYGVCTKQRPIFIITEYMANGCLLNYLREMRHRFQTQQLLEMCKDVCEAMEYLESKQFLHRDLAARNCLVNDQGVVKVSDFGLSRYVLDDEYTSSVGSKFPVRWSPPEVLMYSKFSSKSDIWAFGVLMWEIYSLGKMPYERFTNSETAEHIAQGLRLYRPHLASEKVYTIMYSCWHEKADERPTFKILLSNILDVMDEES
In general, IC50 refers to the concentration that inhibits the measured activity by half. Consider `CC1(C(=O)N2CCC[C@@H](c3nc(-c4ccc(C(=O)Nc5cc(C#N)ccn5)cc4)c4c(N)ncc(Cl)n34)C2)COC1` [Example 445, 4-(8-amino-5-chloro-3-{(3R)-1-[(3-methyloxetan-3-yl)carbonyl]piperidin-3-yl}imidazo[1,5-a]pyrazin-1-yl)-N-(4-cyanopyridin-2-yl)benzamide], for which the IC50 was below 10 nM.
On the same count and under the same terms, then `CCN1CCO[C@H](c2nc(-c3ccc(C(=O)Nc4cc(C(F)(F)F)ccn4)cc3)c3c(N)nccn23)C1` [Example 534, 4-{8-amino-3-[(2S)-4-ethylmorpholin-2-yl]imidazo[1,5-a]pyrazin-1-yl}-N-[4-(trifluoromethyl)pyridin-2-yl]benzamide], with 10 to 100 nM; and `Nc1nccn2c([C@@H]3CCCN(C(=O)CC(F)(F)F)C3)nc(-c3ccc(C(=O)Nc4cc(C(F)(F)F)ccn4)cc3)c12` [Example 332, 4-{8-amino-3-[(3R)-1-(3,3,3-trifluoropropanoyl)piperidin-3-yl]imidazo[1,5-a]pyrazin-1-yl}-N-[4-(trifluoromethyl)pyridin-2-yl]benzamide], with below 10 nM; and `COCCN1CCO[C@@H](c2nc(-c3ccc(C(=O)Nc4cc(C(F)(F)F)ccn4)cc3)c3c(N)ncc(C)n23)C1` [Example 539, 4-{8-amino-3-[(2R)-4-(2-methoxyethyl)morpholin-2-yl]-5-methylimidazo[1,5-a]pyrazin-1-yl}-N-[4-(trifluoromethyl)pyridin-2-yl]benzamide, TFA salt], with below 10 nM.
For the molecule `Cc1cnc(N)c2c(-c3ccc(C(=O)Nc4cc(C(F)(F)F)ccn4)cc3)nc([C@H]3CN(C(=O)C(F)F)CCO3)n12` [Example 538, 4-{8-amino-3-[(2R)-4-(difluoroacetyl)morpholin-2-yl]-5-methylimidazo[1,5-a]pyrazin-1-yl}-N-[4-(trifluoromethyl)pyridin-2-yl]benzamide, TFA salt], the concentration for half-maximal inhibition (IC50) is below 10 nM.
On the same count and under the same terms, the result for `CC(=O)N1C[C@H](c2nc(-c3ccc(C(=O)Nc4cc(C(F)F)ccn4)cc3F)c3c(N)nccn23)CC[C@@H]1C` [Example 435, 4-{3-[(3R,6S)-1-acetyl-6-methylpiperidin-3-yl]-8-aminoimidazo[1,5-a]pyrazin-1-yl}-N-[4-(difluoromethyl)pyridin-2-yl]-3-fluorobenzamide] reads below 10 nM; that for `C[C@H]1CC[C@@H](c2nc(-c3ccc(C(=O)Nc4cc(C(F)(F)F)ccn4)c(F)c3)c3c(N)nccn23)CN1C(=O)C1(C)COC1` [Example 476, 4-(8-amino-3-{(3R,6S)-6-methyl-1-[(3-methyloxetan-3-yl)carbonyl]piperidin-3-yl}imidazo[1,5-a]pyrazin-1-yl)-2-fluoro-N-[4-(trifluoromethyl)pyridin-2-yl]benzamide], below 10 nM.
Consider `Nc1ncnc2c1c(-c1ccc(C(=O)Nc3cc(C(F)(F)F)ccn3)cc1)nn2[C@H]1CC[C@H](C(F)(F)F)NC1` [Example 556, 4-{4-amino-1-[(3S,6R)-6-(trifluoromethyl)piperidin-3-yl]-1H-pyrazolo[3,4-d]pyrimidin-3-yl}-N-[4-(trifluoromethyl)pyridin-2-yl]benzamide, TFA salt], for which the IC50 is below 10 nM.
Still for that read-out and setting: then `CCC(=O)N1CCC[C@@H](c2nc(-c3ccc(C(=O)Nc4cc(OC)ccn4)cc3)c3c(N)nccn23)C1` [Example 372, 4-{8-amino-3-[(3R)-1-propanoylpiperidin-3-yl]imidazo[1,5-a]pyrazin-1-yl}-N-(4-methoxypyridin-2-yl)benzamide], with below 10 nM; and `Nc1nccn2c([C@@H]3CCCN(C(=O)C4(O)CC4)C3)nc(-c3ccc(C(=O)Nc4cc(C(F)(F)F)ccn4)cc3)c12` [Example 342, 4-(8-amino-3-{(3R)-1-[(1-hydroxycyclopropyl)carbonyl]piperidin-3-yl}imidazo[1,5-a]pyrazin-1-yl)-N-[4-(trifluoromethyl)pyridin-2-yl]benzamide], with below 10 nM.

Still in this experiment, the particulars now being: Table D; Assay Method C (LANCE TR-FRET), 50 pM hBTK, 25 μM ATP; read-out: IC50 BTK activity value.
In the case of `C[C@H]1CC[C@@H](c2nc(-c3ccc(C(=O)Nc4cc(C(F)(F)F)ccn4)c(F)c3)c3c(N)nccn23)CN1C(=O)C1(C)COC1` [Example 476, 4-(8-amino-3-{(3R,6S)-6-methyl-1-[(3-methyloxetan-3-yl)carbonyl]piperidin-3-yl}imidazo[1,5-a]pyrazin-1-yl)-2-fluoro-N-[4-(trifluoromethyl)pyridin-2-yl]benzamide], the half-maximal inhibitory concentration (IC50) came to 0.322 nM.
